US10730885B1, “Coumarin derivatives” (KING SAUD UNIVERSITY, priority 2019, dated 2020)
Values after ≈ are worked out from the molar mass of the structure shown. “Also recorded” adds a separate entry of the source. Where two headings read alike, the source gives them in different places.

What was measured:
[1] = DPPH microplate radical scavenging antioxidant assay; format: biochemical; conditions: for IC50: DPPH, 30 min, mean ± SD (n = 3)
Procedure: The antioxidant activity of the synthesized compounds was measured in terms of hydrogen-donating or radical scavenging ability using the DPPH microplate-based method. Absorbance measurement was obtained using Microplate/cuvette reader (Spectramax M5, Molecular Devices, California, USA). Reference standard compound ascorbic acid was used as the positive control for this assay at concentrations ranging from 1.563 to 200 μg/mL. Test samples were prepared at a starting concentration of 200 μg/mL after mixing with 100 μl of 0.2 mM DPPH methanolic solution. A series of concentrations were tested for the samples in order to determine the 50% inhibitory concentration (IC50). Samples were incubated with DPPH in the dark for 30 min at room temperature (25° C.). The DPPH solution in methanol was prepared daily and stored in a flask covered with aluminum foil. DPPH radicals have an absorption maximum (λmax) at 515 nm, in which the absorbance values were measured and converted into percentage of antioxidant activity.
Methanolic DPPH solution without antioxidant was applied as control and background control was samples in methanol only. IC50 was determined using Graphpad Prism 7 (Graphpad Software Inc. CA, USA). The percentage inhibition was calculated by using the formula:
The assay was carried out in triplicate and performed as much as possible in an area protected against light. The data points are presented as the mean±standard deviation (SD) (n=3).

[2] = system: trypsin; test: Proteinase inhibitory activity (trypsin/casein); format: biochemical; conditions: for % Inhibition of proteinase activity: 250 μg/ml, mean ± SD (n = 3)
Procedure: For proteinase inhibitory activity, the reaction mixture (2 ml) contained 0.06 mg trypsin, 20 mM Tris HCl buffer (pH 7.4) and 1 ml test sample (250 μg/ml for each compound). The mixture was incubated for 5 min and then 1 ml of 0.8% (w/v) casein was added. The mixture was incubated for an additional 20 min. 1 ml of 10% perchloric acid was added to arrest the reaction. The cloudy suspension was centrifuged, and the absorbance of the supernatant was read at 280 nm. Reference standard compound aspirin was used as the positive control for this assay. The experiment was performed in triplicate. Percentage inhibition of […] was calculated by using the following formula:
[formula] where Acontrol is the absorbance of the control reaction and Atest is the absorbance of the control reaction with sample.

[3] = system: tested microorganisms; test: MIC by two fold serial dilution, summary over the tested microorganisms; format: cell-based; conditions: against gram-positive bacteria
Source text: (§1) The newly synthesized compounds were individually tested for their in vitro antimicrobial activity against the standard bacteria strains of American Type Culture Collection (ATCC), namely, Staphylococcus aureus ATCC 29213, Bacillus subtilis ATCC 6633, Bacillus megaterium ATCC 9885 (Gram-positive), Escherichia coli ATCC 2592 and Pseudomonas aeruginosa ATCC 27953 (Gram-negative). In addition, they were microbiologically tested against the locally isolated Saccharomyces cerevisiae (yeast) and the standard strain of Agricultural Research Service Culture Collection (NRRL) of the yeast like pathogenic fungus Candida albicans NRRL Y-477. The primary screening was carried out using the agar well diffusion method using nutrient agar (NA) medium and Sabourand dextrose agar (SDA) medium for pathological tested bacteria and yeast, respectively.
(§2) The bacteriostatic activity of the active compounds (having IZ>16 mm) was then evaluated using the two fold serial dilution technique. Two-fold serial dilutions of the tested compound solutions were prepared using the proper nutrient broth. The final concentration of the solutions were 1000, 500, 250 and 125 μg/ml. The tubes were then inoculated with the test organisms, grown in their suitable broth at 37° C. for 24 hours for tested microorganisms. (1×10^8 CFU/ml for bacteria and 1×10^6 CFU/ml of yeast), each 5 ml received 0.1 ml of the above inoculum and incubated at 37° C. for 24 h. The lowest concentration showing no growth was taken as the minimum inhibitory concentration (MIC).

[4] = system: Candida albicans NRRL Y-477; test: Agar well diffusion, primary antimicrobial screening; format: cell-based; conditions: for zone of inhibition at 10000 µg/mL: Candida albicans, NRRLY477, C. albicans NRRL Y-477, 100 μL of 10 mg/ml in DMSO, 24 h, read-out: Inhibition Diameter Zone CA; for antifungal activity compared with reference drug: C. albicans
Source text: as §1
(§3) Antimicrobial tests were carried out by the agar well diffusion method using 100 μL of suspension containing 1×10^8 CFU/mL of pathological tested bacteria and 1×10^6 CFU/ml of yeast spread on NA and SDA, respectively. After the media was cooled and solidified, wells (10 mm in diameter) were made in the solidified agar and loaded with 100 μL of tested compound solution prepared by dissolving 10 mg of the chemical compound in one ml of dimethyl sulfoxide (DMSO). The inculcated plates were then incubated for 24 h at 37° C. for bacteria and yeast. Negative controls were prepared using DMSO employed for dissolving the tested compound. Ciprofloxacin (10 mg/ml) and ketoconazole (10 mg/ml) were used as standard for antibacterial and antifungal activity, respectively. After incubation time, antimicrobial activity was evaluated by measuring the zone of inhibition against the test organisms and compared with that of the standard. Antimicrobial activities were expressed as inhibition diameter zones in millimeters (mm). The experiment was carried out in triplicate and the average zone of inhibition was calculated.

[5] = system: Saccharomyces cerevisiae (local isolate); test: as above; format: cell-based; conditions: for zone of inhibition at 10000 µg/mL: Saccharomyces cerevisiae, 24 h, read-out: Inhibition Diameter Zone SC; for antimicrobial activity compared with ketoconazole: S. cerevisiae
Source text: as §1, §3

[6] = system: Staphylococcus aureus ATCC 29213; test: as above; format: cell-based; conditions: for zone of inhibition at 10000 µg/mL: Staphylococcus aureus, ATCC29213, S. aureus ATCC 29213, 100 μL of 10 mg/ml in DMSO, 24 h, read-out: Inhibition Diameter Zone SA; for antibacterial activity compared with ciprofloxacin: S. aureus
Source text: as §1, §3

[7] = system: formaldehyde-induced paw oedema; test: Formaldehyde-induced rat paw oedema; format: in vivo; conditions: 2.5 mg/kg orally
Procedure: Testing was performed to determine formaldehyde-induced rat paw oedema (edema). For the formaldehyde-induced rat paw oedema (edema) test, female Wister albino rats (150-175 g) were used for determination of the anti-inflammatory activities. The rats were obtained from the animal house colony of the National Organization for Drug Control and Research (NODCAR), Egypt. The animals were kept in standard plastic cages in an air conditioned room at 22±3° C., 55±5% humidity and supplied with standard laboratory diet and water ad libitum. All animal experimental procedures were carried out according to the Ethics Committee of the National Research Centre, Cairo, Egypt and followed the guidelines of the National Institutes of Health, Guide for Care and Use of Laboratory Animals (1985).
The percentage protection against inflammation was calculated by using following formula:
[formula] where Vc is the mean percentage increase in paw volume in the control and Vd is the mean percentage increase in paw volume after injection of the test compound. Values were expressed as mean±standard error (S.E.). Comparisons between mean values were carried out using two-way analysis of variance (ANOVA), followed by Tukey Kramer multiple comparisons test for all acute toxicity study tests. […] was considered significant. Graph pad prism software (version 6) was used to carry out all statistical tests.

[8] = system: Candida albicans NRRL Y-477; test: MIC by two fold serial dilution technique; format: cell-based; conditions: NRRLY477, C. albicans, read-out: Minimal Inhibitory Concentration (MIC) CA
Source text: as §1, §2

[9] = system: Saccharomyces cerevisiae (local isolate); test: MIC by two fold serial dilution technique; format: cell-based; conditions: read-out: Minimal Inhibitory Concentration (MIC) SC
Source text: as §1, §2

[10] = system: Bacillus subtilis ATCC 6633; test: Agar well diffusion, primary antimicrobial screening; format: cell-based; conditions: B. subtilis
Source text: as §1, §3

[11] = system: tested microorganisms; test: Agar well diffusion, summary over the tested microorganisms; format: cell-based; conditions: against one or more microorganisms
Source text: as §1, §3

[12] = system: Escherichia coli ATCC 2592; test: Agar well diffusion, primary antimicrobial screening; format: cell-based
Source text: as §1, §3

[13] = system: Pseudomonas aeruginosa ATCC 27953; test: as above; format: cell-based
Source text: as §1, §3

[14] = system: Bacillus megaterium ATCC 9885; test: as above; format: cell-based; conditions: B. megaterium
Source text: as §1, §3

[15] = S. cerevisiae local isolate, 100 μL of 10 mg/ml in DMSO

Compound	IC50 [1]	% Inhibition of proteinase activity [2]	melting point	zone of inhibition at 10000 µg/mL [4]	in vitro anti-proteinase activity compared with aspirin [2]	in vivo anti-inflammatory activity [7]	zone of inhibition at 10000 µg/mL [5, 15]	also measured
Cc1ccc2oc(=O)c3c(c2c1)OC(N)=C(C#N)C3c1ccc([N+](=O)[O-])cc1 (racemic) [Compound 5a, (±)-2-amino-9-methyl-4-(4-nitrophenyl)-5-oxo-4H,5H-pyrano[3,2-c]chromene-3-carbonitrile]	— ((—): inactive (IC50 > 200 μg/mL))	17.38 ± 1.63%	259 to 261 °C					MIC [3]: 500 to 1000 µg/mL (≈ 1330 to 2660 µM)
Cc1ccc2oc(=O)c3c(c2c1)OC(N)=C(C(N)=O)C3c1ccc([N+](=O)[O-])cc1 (racemic) [Compound 6a, (±)-2-amino-9-methyl-4-(4-nitrophenyl)-5-oxo-4H, 5H-pyrano[3,2-c]chromene-3-carboxamide]	— ((—): inactive (IC50 > 200 μg/mL))	79.72±4.51%	142 to 144 °C	< 15 mm	more potent	significant in vivo anti-inflammatory activity; also recorded: significant protection against inflammation		zone of inhibition at 10000 µg/mL [5]: < 15 mm; zone of inhibition at 10000 µg/mL [6]: < 15 mm
Cc1ccc2oc(=O)c3c(c2c1)OC(N=Cc1ccc(Cl)cc1Cl)=C(C#N)C3c1ccc([N+](=O)[O-])cc1 (racemic) [Compound 8e, (±)-2-((2,4-dichlorobenzylidene)amino)-9-methyl-4-(4-nitrophenyl)-5-oxo-4H,5H-pyrano[3,2-c]chromene-3-carbonitrile]	— ((—): inactive (IC50 > 200 μg/mL))	45.78 ± 1.62%	236 to 238 °C	20 mm	as potent			MIC [8]: 500 µg/mL (≈ 939 µM); MIC [9]: 500 µg/mL (≈ 939 µM)
Cc1ccc2oc(=O)c(S(=O)(=O)Nc3ccc(S(=O)(=O)Nc4nccs4)cc3)c(O)c2c1 [Compound 10f, 4-hydroxy-6-methyl-2-oxo-N-(4-(N-(thiazol-2-yl)sulfamoyl)phenyl)-2H-chromene-3-sulfonamide]	83.52 ± 1.849 µg/mL (≈ 169 µM)	43.88 ± 5.6%	167 to 169 °C		as potent	significant protection against inflammation		
O=c1oc2ccc(Cl)cc2c(O)c1S(=O)(=O)Nc1ccc(O)cc1 [Compound 11c, 6-Chloro-4-hydroxy-N-(4-hydroxyphenyl)-2-oxo-2H-chromene-3-sulfonamide]	3.87 ± 0.409 µg/mL (≈ 10.5 µM)		250 to 251 °C		as potent	significant protection against inflammation	32 mm	antioxidant activity ([1]; overview): particularly high antioxidant activity; antibacterial activity compared with reference drug [10]: comparable antibacterial activities to the standard; antimicrobial activity compared with ketoconazole [5]: higher than that of the corresponding control drug; antibacterial activity compared with ciprofloxacin [6]: higher than the control ciprofloxacin; antimicrobial activity compared with standard antimicrobials (ciprofloxacin and ketoconazole) [11]: equal to or higher than the standard antimicrobials
CC(=O)c1ccc(NS(=O)(=O)c2c(O)c3cc(Cl)ccc3oc2=O)cc1 [Compound 11e, N-(4-acetylphenyl)-6-chloro-4-hydroxy-2-oxo-2H-chromene-3-sulfonamide]	32.85 ± 1.322 µg/mL (≈ 83.4 µM)		238 to 240 °C	< 15 mm			< 15 mm	antifungal activity compared with reference drug [4]: higher antifungal activity; zone of inhibition at 10000 µg/mL ([12]; Escherichia coli, ATCC2592, E. coli ATCC 2592, 100 μL of 10 mg/ml in DMSO, 24 h, read-out: Inhibition Diameter Zone EC): < 15 mm; zone of inhibition at 10000 µg/mL ([13]; Pseudomonas aeruginosa, ATCC27953, P. aeruginosa ATCC 27953, 100 μL of 10 mg/ml in DMSO, 24 h, read-out: Inhibition Diameter Zone PA): < 15 mm; zone of inhibition at 10000 µg/mL [6]: < 15 mm; % inhibition of rat paw oedema ([7]; one hour after induction of inflammation): 9.45%
O=C(/C=C/c1ccc(Cl)cc1)c1ccc(NS(=O)(=O)c2c(O)c3cc(Cl)ccc3oc2=O)cc1 [Compound 12c, (E)-6-chloro-N-(4-(3-(4-chlorophenyl)acryloyl)phenyl)-4-hydroxy-2-oxo-2H-chromene-3-sulfonamide]	— ((—): inactive (IC50 > 200 μg/mL))	17.6 ± 6.86%	157 to 159 °C				31 mm	antibacterial activity compared with ciprofloxacin [14]: comparable to ciprofloxacin; antibacterial activity compared with reference drug [10]: comparable antibacterial activities to the standard; antifungal activity compared with reference drug [4]: higher antifungal activity; antibacterial activity compared with ciprofloxacin ([12]; E. coli): comparable antibacterial potential; antibacterial activity compared with standard ([13]; P. aeruginosa): comparable antibacterial activity to the standard; antimicrobial activity compared with ketoconazole [5]: higher than that of the corresponding control drug; antibacterial activity compared with ciprofloxacin [6]: equal to ciprofloxacin; antimicrobial activity compared with standard antimicrobials (ciprofloxacin and ketoconazole) [11]: equal to or higher than the standard antimicrobials
